# According to PubChem BioAssay (NCI):
#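 Dose response: 5 concentrations. Exposure: 48 h. Format: 96-well plates. Endpoint: linear interpolation; highest concentration if not reached. TGI denotes the concentration required for complete inhibition of growth.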
# Columns and labels:
# Assay in all cases: growth of human tumour cells (NCI), 48 h
# 786-0 renal = system: 786-0 renal
# A498 renal = system: A498 renal
# A549 NSCLC = system: A549 NSCLC
# ACHN renal = system: ACHN renal
# CAKI-1 renal = system: CAKI-1 renal
# CCRF-CEM leukemia = system: CCRF-CEM leukemia
# COLO 205 colon = system: COLO 205 colon
# DLD-1 colon = system: DLD-1 colon
# DMS 114 small cell lung = system: DMS 114 small cell lung
# DMS 273 small cell lung = system: DMS 273 small cell lung
# EKVX NSCLC = system: EKVX NSCLC
# HCC-2998 colon = system: HCC-2998 colon
# HCT-116 colon = system: HCT-116 colon
# HCT-15 colon = system: HCT-15 colon
# HL-60(TB) leukemia = system: HL-60(TB) leukemia
# HOP-18 NSCLC = system: HOP-18 NSCLC
# HOP-92 NSCLC = system: HOP-92 NSCLC
# HT29 colon = system: HT29 colon
# IGROV1 ovarian = system: IGROV1 ovarian
# K-562 leukemia = system: K-562 leukemia
# KM12 colon = system: KM12 colon
# KM20L2 colon = system: KM20L2 colon
# LOX IMVI melanoma = system: LOX IMVI melanoma
# LXFL 529 NSCLC = system: LXFL 529 NSCLC
# M14 melanoma = system: M14 melanoma
# M19-MEL melanoma = system: M19-MEL melanoma
# MALME-3M melanoma = system: MALME-3M melanoma
# MOLT-4 leukemia = system: MOLT-4 leukemia
# NCI-H226 lung = system: NCI-H226 lung
# NCI-H23 lung = system: NCI-H23 lung
# NCI-H460 lung = system: NCI-H460 lung
# NCI-H522 lung = system: NCI-H522 lung
# OVCAR-3 ovarian = system: OVCAR-3 ovarian
# OVCAR-4 ovarian = system: OVCAR-4 ovarian
# OVCAR-5 ovarian = system: OVCAR-5 ovarian
# OVCAR-8 ovarian = system: OVCAR-8 ovarian
# RPMI-8226 leukemia = system: RPMI-8226 leukemia
# RXF 393 renal = system: RXF 393 renal
# RXF-631 renal = system: RXF-631 renal
# SF-268 CNS = system: SF-268 CNS
# SF-295 CNS = system: SF-295 CNS
# SF-539 CNS = system: SF-539 CNS
# SK-MEL-2 melanoma = system: SK-MEL-2 melanoma
# SK-MEL-28 melanoma = system: SK-MEL-28 melanoma
# SK-MEL-5 melanoma = system: SK-MEL-5 melanoma
# SK-OV-3 ovarian = system: SK-OV-3 ovarian
# SN12C renal = system: SN12C renal
# SNB-19 CNS = system: SNB-19 CNS
# SNB-75 CNS = system: SNB-75 CNS
# SNB-78 CNS = system: SNB-78 CNS
# SW-620 colon = system: SW-620 colon
# TK-10 renal = system: TK-10 renal
# U251 CNS = system: U251 CNS
# UACC-257 melanoma = system: UACC-257 melanoma
# UACC-62 melanoma = system: UACC-62 melanoma
# UO-31 renal = system: UO-31 renal
# HOP-62 NSCLC = system: HOP-62 NSCLC
# SR leukemia = system: SR leukemia
# XF 498 CNS = system: XF 498 CNS
compound,measurement,setting,value
C1CC2=C(C1)C1=S(S2)SC2=C1CCC2,TGI,786-0 renal,> 100 µM
same,TGI,A498 renal,87.4 µM
same,TGI,A549 NSCLC,> 100 µM
same,TGI,ACHN renal,> 100 µM
same,TGI,CAKI-1 renal,> 100 µM
same,TGI,CCRF-CEM leukemia,> 100 µM
same,TGI,COLO 205 colon,> 100 µM
same,TGI,DLD-1 colon,> 100 µM
same,TGI,DMS 114 small cell lung,> 100 µM
same,TGI,DMS 273 small cell lung,> 100 µM
same,TGI,EKVX NSCLC,> 100 µM
same,TGI,HCC-2998 colon,> 100 µM
same,TGI,HCT-116 colon,> 100 µM
same,TGI,HCT-15 colon,> 100 µM
same,TGI,HL-60(TB) leukemia,> 100 µM
same,TGI,HOP-18 NSCLC,> 100 µM
same,TGI,HOP-92 NSCLC,> 100 µM
same,TGI,HT29 colon,> 100 µM
same,TGI,IGROV1 ovarian,> 100 µM
same,TGI,K-562 leukemia,> 100 µM
same,TGI,KM12 colon,> 100 µM
same,TGI,KM20L2 colon,> 100 µM
same,TGI,LOX IMVI melanoma,> 100 µM
same,TGI,LXFL 529 NSCLC,> 100 µM
same,TGI,M14 melanoma,> 100 µM
same,TGI,M19-MEL melanoma,> 100 µM
same,TGI,MALME-3M melanoma,> 100 µM
same,TGI,MOLT-4 leukemia,> 100 µM
same,TGI,NCI-H226 lung,> 100 µM
same,TGI,NCI-H23 lung,> 100 µM
same,TGI,NCI-H460 lung,> 100 µM
same,TGI,NCI-H522 lung,> 100 µM
same,TGI,OVCAR-3 ovarian,> 100 µM
same,TGI,OVCAR-4 ovarian,> 100 µM
same,TGI,OVCAR-5 ovarian,> 100 µM
same,TGI,OVCAR-8 ovarian,> 100 µM
same,TGI,RPMI-8226 leukemia,> 100 µM
same,TGI,RXF 393 renal,> 100 µM
same,TGI,RXF-631 renal,> 100 µM
same,TGI,SF-268 CNS,> 100 µM
same,TGI,SF-295 CNS,> 100 µM
same,TGI,SF-539 CNS,> 100 µM
same,TGI,SK-MEL-2 melanoma,> 100 µM
same,TGI,SK-MEL-28 melanoma,> 100 µM
same,TGI,SK-MEL-5 melanoma,> 100 µM
same,TGI,SK-OV-3 ovarian,> 100 µM
same,TGI,SN12C renal,> 100 µM
same,TGI,SNB-19 CNS,> 100 µM
same,TGI,SNB-75 CNS,> 100 µM
same,TGI,SNB-78 CNS,> 100 µM
same,TGI,SW-620 colon,> 100 µM
same,TGI,TK-10 renal,> 100 µM
same,TGI,U251 CNS,> 100 µM
same,TGI,UACC-257 melanoma,> 100 µM
same,TGI,UACC-62 melanoma,> 100 µM
same,TGI,UO-31 renal,> 100 µM
CCC(=O)C(C(=O)CC)c1c(OC(=O)c2ccccc2)ccc(O)c1C(=O)OC,TGI,786-0 renal,> 100 µM
same,TGI,A498 renal,> 100 µM
same,TGI,A549 NSCLC,> 100 µM
same,TGI,ACHN renal,> 100 µM
same,TGI,CAKI-1 renal,> 100 µM
same,TGI,CCRF-CEM leukemia,> 100 µM
same,TGI,COLO 205 colon,> 100 µM
same,TGI,DMS 273 small cell lung,> 100 µM
same,TGI,EKVX NSCLC,> 100 µM
same,TGI,HCT-116 colon,> 100 µM
same,TGI,HCT-15 colon,> 100 µM
same,TGI,HL-60(TB) leukemia,> 100 µM
same,TGI,HOP-62 NSCLC,> 100 µM
same,TGI,HOP-92 NSCLC,> 100 µM
same,TGI,HT29 colon,> 100 µM
same,TGI,IGROV1 ovarian,> 100 µM
same,TGI,K-562 leukemia,> 100 µM
same,TGI,KM12 colon,> 100 µM
same,TGI,KM20L2 colon,> 100 µM
same,TGI,LOX IMVI melanoma,> 100 µM
same,TGI,LXFL 529 NSCLC,> 100 µM
same,TGI,M14 melanoma,> 100 µM
same,TGI,M19-MEL melanoma,> 100 µM
same,TGI,MOLT-4 leukemia,> 100 µM
same,TGI,NCI-H226 lung,> 100 µM
same,TGI,NCI-H23 lung,> 100 µM
same,TGI,NCI-H460 lung,> 100 µM
same,TGI,NCI-H522 lung,> 100 µM
same,TGI,OVCAR-3 ovarian,> 100 µM
same,TGI,OVCAR-4 ovarian,> 100 µM
same,TGI,OVCAR-5 ovarian,> 100 µM
same,TGI,OVCAR-8 ovarian,> 100 µM
same,TGI,RPMI-8226 leukemia,> 100 µM
same,TGI,RXF 393 renal,> 100 µM
same,TGI,RXF-631 renal,> 100 µM
same,TGI,SF-268 CNS,> 100 µM
same,TGI,SF-295 CNS,> 100 µM
same,TGI,SF-539 CNS,> 100 µM
same,TGI,SK-MEL-2 melanoma,> 100 µM
same,TGI,SK-MEL-28 melanoma,> 100 µM
same,TGI,SK-MEL-5 melanoma,> 100 µM
same,TGI,SK-OV-3 ovarian,> 100 µM
same,TGI,SN12C renal,> 100 µM
same,TGI,SNB-19 CNS,> 100 µM
same,TGI,SNB-75 CNS,> 100 µM
same,TGI,SNB-78 CNS,> 100 µM
same,TGI,SR leukemia,> 100 µM
same,TGI,SW-620 colon,> 100 µM
same,TGI,TK-10 renal,> 100 µM
same,TGI,U251 CNS,> 100 µM
same,TGI,UACC-257 melanoma,> 100 µM
same,TGI,UACC-62 melanoma,> 100 µM
same,TGI,UO-31 renal,> 100 µM
same,TGI,XF 498 CNS,> 100 µM
